# Patent US20100016156A1, “Pesticidal Mixtures” (BASF SE, priority 2007, published 2010)
# How the values were obtained:
# [1] = test system: Blumeria graminis f. sp. tritici; assay: Control of powdery mildew on wheat (protective spray, greenhouse); assay type: in vivo; conditions: 7 days after inoculation, untreated 70% infection
# Procedure: Preparation: The spray solutions were prepared in several steps:
# A stock solution was prepared: a mixture of acetone and/or DMSO and the wetting agent/emulsifier Uniperol, which is based on ethoxylated alkylphenoles, in a relation (volume) solvent-emulsifier of 99 to 1 was added to 25 mg of the compound to give a total of 10 ml. Water was then added to total volume of 100 ml.
# This stock solution was diluted with the described solvent-emulsifier-water mixture to the given concentration.
# The first fully developed leaves of pot grown wheat were sprayed to run-off with an aqueous suspension, containing the concentration of active ingredient or their mixture mentioned in the table below. […] After cultivation in the greenhouse for 7 days at 22-26° C. and a relative humidity between 60 to 90% the extent of fungal attack on the leaves was visually assessed as % diseased leaf area.
# The visually determined percentages of infected leaf areas were converted into efficacies in % of the untreated control:
# The efficacy (E) is calculated as follows using Abbot's formula: […]
# The expected efficacies of active compound combinations were determined using Colby's formula (Colby, S. R. “Calculating synergistic and antagonistic responses of herbicide combinations”, Weeds, 15, 20-22, 1967) and compared with the observed efficacies. […]
# Pyrenophora teres = assay: Control of net blotch on barley (protective spray, greenhouse); assay type: in vivo, Pyrenophora (syn. Drechslera) teres; conditions: 6 days after inoculation, untreated 70% infection
# Procedure: Preparation: The spray solutions were prepared in several steps: A stock solution was prepared: a mixture of acetone and/or DMSO and the wetting agent/emulsifier Uniperol, which is based on ethoxylated alkylphenoles, in a relation (volume) solvent-emulsifier of 99 to 1 was added to 25 mg of the compound to give a total of 10 ml. Water was then added to total volume of 100 ml. This stock solution was diluted with the described solvent-emulsifier-water mixture to the given concentration. The first fully developed leaves of pot grown barley plants were sprayed to run-off with an aqueous suspension, containing the concentration of active ingredient or their mentioned in the table below. The next day the treated plants were inoculated with an aqueous spore suspension of Pyrenophora (syn. Drechslera) teres. Then the trial plants were immediately transferred to a humid chamber in the greenhouse. After 6 days of cultivation at 20-24° C. and a relative humidity close to 70%, the extent of fungal attack on the leaves was visually assessed as % leaf area. Evaluation was carried out analogously to example 1.
smiles,measurement,setting,value
"CN/C(=N\[N+](=O)[O-])NCc1cnc(Cl)s1 [Clothianidine, (E)-1-(2-chloro-1,3-thiazol-5-ylmethyl)-3-methyl-2-nitroguanidine]",Efficacy in % of the untreated control,[1]; 0.25 ppm in spray liquor,0%
same,Efficacy in % of the untreated control,Pyrenophora teres; 4 ppm in spray liquor,0%
same,Efficacy in % of the untreated control,Pyrenophora teres; 16 ppm in spray liquor,0%
"CO/N=C(/C1=NOCCO1)c1ccccc1Oc1ncnc(Oc2ccccc2Cl)c1F [Fluoxastrobin, (E)-{2-[6-(2-chlorophenoxy)-5-fluoropyrimidin-4-yloxy]phenyl}(5,6-dihydro-1,4,2-dioxazin-3-yl)methanone O-methyloxime]",Efficacy in % of the untreated control,[1]; 0.063 ppm in spray liquor,0%
same,Efficacy in % of the untreated control,Pyrenophora teres; 0.25 ppm in spray liquor,0%
